Test [1] is described as follows: Antiinflammatory activity in mouse BMDM cells assessed as inhibition of IL1-beta production relative to control. It counts as functional.
The nature of test [2]: Antiinflammatory activity in mouse BMDM cells assessed as inhibition of TNF-alpha production relative to control. It counts as functional.
Test [3] is described as follows: Selectivity index, ratio of antiinflammatory activity in mouse BMDM cells assessed as inhibition of TNF-alpha production to antiinflammatory activity in mouse BMDM cells assessed as inhibition of IL1-beta production. The format is functional.
Test [4] in a line: Selectivity index, ratio of IC50 for antiinflammatory activity in mouse BMDM cells assessed as inhibition of TNF-alpha production to IC50 for antiinflammatory activity in mouse BMDM cells assessed as inhibition of IL1-beta production. The format is functional.
Test [5] in a line: Antiinflammatory activity in mouse BMDM cells assessed as inhibition of IL1-beta production. The format is functional, cell-based.
A short description of test [6]: Antiinflammatory activity in mouse BMDM cells assessed as inhibition of TNF-alpha production. The format is functional, cell-based.
For test [7], the target named is NACHT, LRR and PYD domains-containing protein 3 (Mus musculus) (UniProt Q8R4B8). Kind of test: Inhibition of NLRP3 inflammasome activation in LPS-primed mouse BMDM cells assessed as inhibition of LPS/ATP induced IL-1beta release by ELISA. It counts as cell-based. On the technique in general: In an ELISA, binding on a coated surface is turned into a signal by an enzyme label.

For test [8] the target is unchanged. Kind of test: Inhibition of NLRP3 inflammasome activation in LPS-primed immortalized mouse BMDM cells assessed as inhibition of LPS/ATP induced IL-1beta release by ELISA. The format is cell-based.
Test [9] has the same target. Kind of test: Inhibition of NLRP3 inflammasome activation in LPS-primed immortalized mouse BMDM cells assessed as reduction in ATP-induced mature IL-1beta expression in supernatant at 5 to 20 uM by western blot analysis. The following applies: dose 5-20 µM. It counts as cell-based. A general note: Immunoblotting shows a protein as a band on a membrane.
Test [10] shares this target. Kind of test: Inhibition of NLRP3 inflammasome activation in LPS-primed immortalized mouse BMDM cells assessed as reduction in ATP-induced cleaved caspase-1 expression in supernatant at 5 to 20 uM by western blot analysis. The format is cell-based. The following applies: dose 5-20 µM.
Test [11] shares this target. Kind of test: Inhibition of NLRP3 inflammasome activation in LPS-primed immortalized mouse BMDM cells assessed as effect on ATP-induced NLRP3 level in cell lysate at 5 to 20 uM by western blot analysis. It counts as subcellular. The settings on record: dose 5-20 µM.
Test [12] shares this target. Kind of test: Inhibition of NLRP3 inflammasome activation in LPS-primed immortalized mouse BMDM cells assessed as effect on ATP-induced pro-IL-1beta level in cell lysate at 5 to 20 uM by western blot analysis. The format is subcellular. The settings on record: dose 5-20 µM.

Molecules are shown by their SMILES. Active and inactive are the calls of the source. The calls are words filed in the database; no cut-off is given here.

Sequence of NACHT, LRR and PYD domains-containing protein 3 (Mus musculus) (Q8R4B8 whole entry, the tested form may be a part): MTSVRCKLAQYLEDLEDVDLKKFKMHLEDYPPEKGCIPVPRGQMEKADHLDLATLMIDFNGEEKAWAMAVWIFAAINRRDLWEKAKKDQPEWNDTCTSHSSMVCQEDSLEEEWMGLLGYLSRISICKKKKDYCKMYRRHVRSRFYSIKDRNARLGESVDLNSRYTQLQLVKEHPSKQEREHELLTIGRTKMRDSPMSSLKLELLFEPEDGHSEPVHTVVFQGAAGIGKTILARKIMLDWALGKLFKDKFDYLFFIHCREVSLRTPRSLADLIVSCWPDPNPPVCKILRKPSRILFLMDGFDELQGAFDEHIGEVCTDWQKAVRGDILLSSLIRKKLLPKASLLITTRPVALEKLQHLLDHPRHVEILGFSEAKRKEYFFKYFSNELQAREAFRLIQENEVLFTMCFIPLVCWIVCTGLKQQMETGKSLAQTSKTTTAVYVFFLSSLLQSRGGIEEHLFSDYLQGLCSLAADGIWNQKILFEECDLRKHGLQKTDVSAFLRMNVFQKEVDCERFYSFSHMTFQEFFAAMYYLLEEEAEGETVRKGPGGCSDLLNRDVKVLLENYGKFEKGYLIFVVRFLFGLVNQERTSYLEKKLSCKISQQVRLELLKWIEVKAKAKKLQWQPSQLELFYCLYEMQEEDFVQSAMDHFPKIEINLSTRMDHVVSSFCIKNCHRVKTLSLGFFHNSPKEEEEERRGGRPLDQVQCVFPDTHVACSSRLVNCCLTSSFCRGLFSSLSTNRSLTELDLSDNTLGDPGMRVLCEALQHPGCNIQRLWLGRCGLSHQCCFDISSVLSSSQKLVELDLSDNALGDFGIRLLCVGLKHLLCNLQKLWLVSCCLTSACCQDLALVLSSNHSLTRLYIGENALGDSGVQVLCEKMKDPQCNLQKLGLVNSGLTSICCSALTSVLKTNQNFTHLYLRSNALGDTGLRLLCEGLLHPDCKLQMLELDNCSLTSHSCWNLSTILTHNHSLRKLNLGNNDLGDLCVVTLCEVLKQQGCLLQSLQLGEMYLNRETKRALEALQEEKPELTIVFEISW

As for `COC(=O)c1nnn(Cc2cc(Cl)c(C(=O)c3ccc(Cl)cc3)c(Cl)c2)c1N`, the “inhibition (INH)” value is 18.59% in [1] and -6.83% in test [2]. Further, the “Selectivity Index” value in [3] came out at 2.72.

With `Nc1c(C(=O)NCc2ccccc2)nnn1Cc1cc(Cl)c(C(=O)c2ccc(Cl)cc2)c(Cl)c1`, the results for the “inhibition (INH)” value in test [1] and in test [2] were 21.22% and 7.59%, respectively. Further, the “Selectivity Index” value in test [3] is 2.8.

Consider `CC(C)C(=O)N(C(=O)C(C)C)c1c(C(N)=O)nnn1Cc1cc(Cl)c(C(=O)c2ccc(Cl)cc2)c(Cl)c1`, for which the “inhibition (INH)” value in test [1] was -22.3%; in [2], 20.24%.

With `Nc1c(C(=O)N2CCCCC2)nnn1Cc1cc(Cl)c(C(=O)c2ccc(Cl)cc2)c(Cl)c1`, the “inhibition (INH)” value in test [1] is 27.12%; in test [2] it was 52.43%. Moreover, the “Selectivity Index” value in [3] is 0.51.

On to `CC(=O)c1nnn(Cc2cc(Cl)c(C(=O)c3ccc(Cl)cc3)c(Cl)c2)c1N`, for which the “inhibition (INH)” value in test [1] amounted to 39.49%; in test [2], 49.4%. In test [3], the “Selectivity Index” value amounted to 0.8.

Regarding `CN(C)C(=O)c1nnn(Cc2cc(Cl)c(C(=O)c3ccc(Cl)cc3)c(Cl)c2)c1N`, the figures for the “inhibition (INH)” value in test [1] and in test [2] were 43.42% and 57.9%, respectively. Also, the “Selectivity Index” value in test [3] was determined as 0.75.

As to `Nc1c(C(=O)NCCOCCOCCO)nnn1Cc1cc(Cl)c(C(=O)c2ccc(Cl)cc2)c(Cl)c1`, the “inhibition (INH)” value is 42.65% in [1] and 8.04% in test [2]. Also, the “Selectivity Index” value in test [3] worked out at 5.3.

As to `NC(=O)c1nnn(Cc2ccc3ccccc3c2)c1N`, the results for the “inhibition (INH)” value in test [1] and in [2] were -26.65% and 2.5%, respectively.

As to `N#Cc1nnn(Cc2cc(Cl)c(C(=O)c3ccc(Cl)cc3)c(Cl)c2)c1N`, the figures for the “inhibition (INH)” value in test [1] and in test [2] were 64.01% and 82.32%, respectively. Besides, in [3], the “Selectivity Index” value turned out to be 0.78.

For `NC(=O)c1nnn(Cc2cc(Cl)c(C(=O)c3ccc(Cl)cc3)c(Cl)c2)c1N(C(=O)C1CC1)C(=O)C1CC1`, the “inhibition (INH)” value in test [1] is on record as -36.41%; in test [2] it was 48.7%.

In the case of `Nc1c(C(=O)NCCO)nnn1Cc1cc(Cl)c(C(=O)c2ccc(Cl)cc2)c(Cl)c1`, the “inhibition (INH)” value in test [1] was found to be 72.28%; in [2], 15.01%. For the same compound, the “Selectivity Index” value in test [3] came out at 4.85.

As to `CCC(CC)C(=O)N(C(=O)C(CC)CC)c1c(C(N)=O)nnn1Cc1cc(Cl)c(C(=O)c2ccc(Cl)cc2)c(Cl)c1`, the “inhibition (INH)” value was -22.74% in test [1] and 12.68% in test [2].

For the compound `Nc1c(C(=O)N2CCCC2)nnn1Cc1cc(Cl)c(C(=O)c2ccc(Cl)cc2)c(Cl)c1`, the “inhibition (INH)” value was 33.52% in test [1] and 51.44% in [2]. Further, in [3], the “Selectivity Index” value is recorded as 0.65.

In the case of `CC(C)C(=O)Nc1c(C(N)=O)nnn1Cc1cc(Cl)c(C(=O)c2ccc(Cl)cc2)c(Cl)c1`, the “inhibition (INH)” value in test [1] was determined as 30.69%; in [2], 7.91%. Also, in test [3], the “Selectivity Index” value is 3.88.

Take `Nc1c(C(=O)NCCOCCO)nnn1Cc1cc(Cl)c(C(=O)c2ccc(Cl)cc2)c(Cl)c1`: the results for the “inhibition (INH)” value in test [1] and in test [2] were 62% and 5.3%, respectively. In test [3], the “Selectivity Index” value amounted to 1.12.

For `NC(=O)c1nnn(Cc2ccc(-c3ccccc3)cc2)c1N`, the “inhibition (INH)” value is -18.17% in test [1] and 0.39% in test [2].

On to `NC(=O)c1nnn(Cc2cc(Cl)c(C(=O)c3ccc(Cl)cc3)c(Cl)c2)c1N` [CARBOXYAMIDOTRIAZOLE], for which the figures for the “inhibition (INH)” value in test [1] and in [2] were 71.94% and 87.54%, respectively. For the same compound, the “Selectivity Index” value in test [3] was determined as 0.82.

For `NC(=O)c1nnn(Cc2ccccc2)c1N`, the entries for the “inhibition (INH)” value in test [1] and in test [2] were -6.29% and -12.61%, respectively.

Regarding `NC(=O)c1cn(Cc2cc(Cl)c(C(=O)c3ccc(Cl)cc3)c(Cl)c2)nn1`, the “inhibition (INH)” value in test [1] is 50.67%; in test [2], 30.18%. The “Selectivity Index” value in test [3] amounted to 1.68.

Take `NC(=O)c1nnn(Cc2cc(Cl)c(C(=O)c3ccc(Cl)cc3)c(Cl)c2)c1NC(=O)c1ccccc1`: the “inhibition (INH)” value in test [1] was 46.29%; in [2], 86.58%. The “Selectivity Index” value in [3] came to 0.53.

For the compound `CNC(=O)c1nnn(Cc2cc(Cl)c(C(=O)c3ccc(Cl)cc3)c(Cl)c2)c1N`, the “inhibition (INH)” value in test [1] came out at 58.34%; in test [2], 46.35%. Also, the “Selectivity Index” value in test [3] was determined as 1.26.

On to `CN(C)c1c(C(N)=O)nnn1Cc1cc(Cl)c(C(=O)c2ccc(Cl)cc2)c(Cl)c1`, for which the results for the “inhibition (INH)” value in test [1] and in test [2] were 39.86% and 45.89%, respectively. Moreover, the “Selectivity Index” value in test [3] is reported as 0.87.

Take `CCC(CC)C(=O)Nc1c(C(N)=O)nnn1Cc1cc(Cl)c(C(=O)c2ccc(Cl)cc2)c(Cl)c1`: the “inhibition (INH)” value is recorded as 77.01% in [1] and 5.73% in test [2]. The “Selectivity Index” value in test [3] amounted to 13.43. Also, in test [4], the “Ratio IC50” value is >12.37. The IC50 (commonly the point on the concentration scale where inhibition reaches its midpoint) in test [5] was 8.08 µM; in test [6] it was > 100 µM.

Consider `CC(C)(C)C(=O)N(C(=O)C(C)(C)C)c1c(C(N)=O)nnn1Cc1cc(Cl)c(C(=O)c2ccc(Cl)cc2)c(Cl)c1`, for which the “inhibition (INH)” value was -8.41% in [1] and 17.92% in test [2].

In the case of `CC(C)(C)C(=O)Nc1c(C(N)=O)nnn1Cc1cc(Cl)c(C(=O)c2ccc(Cl)cc2)c(Cl)c1`, the “inhibition (INH)” value in test [1] was 68.75%; in test [2], 92.89%. In addition, the “Selectivity Index” value in test [3] came out at 0.74.

Take `NC(=O)c1nnn(Cc2cc(Cl)c(C(=O)c3ccc(Cl)cc3)c(Cl)c2)c1NC(=O)CCBr`: the “inhibition (INH)” value in test [1] is recorded as 87.06%; in test [2], 81.52%. The “Selectivity Index” value in [3] was determined as 1.07. Also, the “Ratio IC50” value in test [4] is reported as 1.96. Besides, the IC50 came out at 4.97 µM in test [5] and 9.77 µM in test [6].

With `NC(=O)c1nnn(Cc2cc(Cl)c(C(=O)c3ccc(Cl)cc3)c(Cl)c2)c1NC(=O)CCCBr`, the “inhibition (INH)” value in [1] is 53.09%; in test [2], -2.72%. Further, in [3], the “Selectivity Index” value is 19.51.

For the compound `CCC(=O)Nc1c(C(N)=O)nnn1Cc1cc(Cl)c(C(=O)c2ccc(Cl)cc2)c(Cl)c1`, the results for the “inhibition (INH)” value in test [1] and in test [2] were 47.39% and 14.25%, respectively. For the same compound, in test [3], the “Selectivity Index” value worked out at 3.33.

For the compound `CN1CCN(C(=O)c2nnn(Cc3cc(Cl)c(C(=O)c4ccc(Cl)cc4)c(Cl)c3)c2N)CC1`, the “inhibition (INH)” value is given as 36.62% in [1] and 97% in test [2]. For the same compound, the “Selectivity Index” value in test [3] amounted to 0.38.

For `CCC(=O)N(C(=O)CC)c1c(C(N)=O)nnn1Cc1cc(Cl)c(C(=O)c2ccc(Cl)cc2)c(Cl)c1`, the “inhibition (INH)” value in test [1] was -23.37%; in test [2], 11.95%.

Turning to `CCNC(=O)c1nnn(Cc2cc(Cl)c(C(=O)c3ccc(Cl)cc3)c(Cl)c2)c1N`, the “inhibition (INH)” value is given as 53.9% in test [1] and 75.89% in [2]. Moreover, the “Selectivity Index” value in [3] is on record as 0.71.

Regarding `NC(=O)c1nnn(Cc2cc(Cl)c(C(=O)c3ccc(Cl)cc3)c(Cl)c2)c1NC(=O)c1ccco1`, the “inhibition (INH)” value in test [1] worked out at 56.91%; in test [2], 21.44%. Further, in [3], the “Selectivity Index” value is 2.65.

Take `CCCC(=O)Nc1c(C(N)=O)nnn1Cc1cc(Cl)c(C(=O)c2ccc(Cl)cc2)c(Cl)c1`: the “inhibition (INH)” value was determined as 74.89% in test [1] and 47.9% in test [2]. Besides, the “Selectivity Index” value in [3] turned out to be 1.56. The “Ratio IC50” value in test [4] was 2.25. Also, the IC50 was found to be 11.9 µM in [5] and 26.8 µM in test [6].

`CCNc1c(C(N)=O)nnn1Cc1cc(Cl)c(C(=O)c2ccc(Cl)cc2)c(Cl)c1`: the figures for the “inhibition (INH)” value in test [1] and in test [2] were 57.89% and 57.8%, respectively. The “Selectivity Index” value in test [3] was found to be 1.

Regarding `CNc1c(C(N)=O)nnn1Cc1cc(Cl)c(C(=O)c2ccc(Cl)cc2)c(Cl)c1`, the “inhibition (INH)” value in [1] turned out to be 57.66%; in test [2] it was 15.53%. Moreover, the “Selectivity Index” value in test [3] is recorded as 3.71. Moreover, the “Ratio IC50” value in [4] is listed as >18.22. For the same compound, the inhibition entry in test [7] and in test [8] was “Dose-Dependent Effect” in each case. Also, the inhibition entry in test [9] and in [10] was “Active” each time. The IC50 is 5.49 µM in [5] and > 100 µM in [6]. Besides, the inhibition entry in [11] and in [12] was “inactive” in each case.

Consider `NC(=O)c1nnn(Cc2ccc(C(=O)c3ccccc3)cc2)c1N`, for which the “inhibition (INH)” value in test [1] is on record as 1.36%; in test [2], -16.37%.

Consider `NC(=O)c1nnn(Cc2cc(Cl)c(C(=O)c3ccc(Cl)cc3)c(Cl)c2)c1NC(=O)C1CC1`, for which the figures for the “inhibition (INH)” value in [1] and in test [2] were 57.13% and 73.51%, respectively. Also, the “Selectivity Index” value in test [3] stood at 0.78.

The values above are taken from ChEMBL document CHEMBL5029170, “Discovery of novel triazole compounds as selective IL-1β releasement inhibitors” (Bioorg Med Chem Lett, 2021).
